Test results from ChEMBL document CHEMBL1201862, “PubChem BioAssay data set” (2004).
Active and inactive are the calls of the source.

Legend:
[1] = M. tuberculosis H37Rv growth inhibitors, H37Rv strain (AID 1626); format: functional
NS3 = NS3 (Hepatitis C virus, UniProt A3EZJ3); assay: PubChem AID 2173; design: species or system Hepacivirus hominis
[2] = biological target: T1, Sphingosine 1-phosphate receptor 2 (Homo sapiens, UniProt O95136); assay: Dose Response Cell Based Assay for Antagonists of the S1P2 Receptor. [Related pubchem assays: 856, 736 ]; format: functional
T1 sequence (O95136 whole entry): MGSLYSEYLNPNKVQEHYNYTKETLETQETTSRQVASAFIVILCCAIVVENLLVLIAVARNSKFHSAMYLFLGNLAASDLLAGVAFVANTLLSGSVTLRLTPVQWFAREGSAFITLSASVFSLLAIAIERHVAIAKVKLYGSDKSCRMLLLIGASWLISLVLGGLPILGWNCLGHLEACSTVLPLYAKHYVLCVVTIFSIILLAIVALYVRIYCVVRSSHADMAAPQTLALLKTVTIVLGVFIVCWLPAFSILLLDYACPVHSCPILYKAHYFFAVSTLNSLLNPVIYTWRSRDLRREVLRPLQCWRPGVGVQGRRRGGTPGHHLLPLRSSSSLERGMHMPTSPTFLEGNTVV

[3] = biological target: Peroxisome proliferator-activated receptor gamma/Nuclear receptor coactivator 3 (Homo sapiens, UniProt P37231); format: functional;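 further: agonist potency for raising coactivator recruitment to the receptor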
[4] = biological target: Peroxisome proliferator-activated receptor gamma/Nuclear receptor coactivator 2 (Homo sapiens, UniProt P37231); format: functional;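 further: agonist potency for raising coactivator recruitment to the receptor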
[5] = biological target: Peroxisome proliferator-activated receptor gamma/Nuclear receptor coactivator 1 (Homo sapiens, UniProt P37231); format: functional;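 further: agonist potency as compounds enhance coactivator SRC-1 recruitment to PPARgamma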
[6] = biological target: T1, Sphingosine 1-phosphate receptor 2; assay: Dose Response Cell Based Assay for Agonists of the S1P2 Receptor. [Related pubchem assays: 729, 736, 843 ]; format: functional
[7] = biological target: T2, Endoribonuclease toxin MazF (Escherichia coli K-12, UniProt P0AE70); assay: MazF toxin RNase activators, dose response, biochemical, fluorescence, single-stranded RNA substrate, uHTS hits (AID 588481); format: functional
T2 sequence (P0AE70 whole entry): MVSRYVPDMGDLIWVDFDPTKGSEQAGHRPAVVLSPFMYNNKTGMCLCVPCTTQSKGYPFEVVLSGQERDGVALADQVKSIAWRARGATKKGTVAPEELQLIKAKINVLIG

Ephrin type-A receptor 4 = Ephrin type-A receptor 4 (Mus musculus, UniProt Q03137); assay: inhibitors of EphA4 binding to KYL peptide, primary screen, biochemical, colorimetric, mouse EphA4 (AID 689); format: functional
Sequence of Ephrin type-A receptor 4 (Q03137 whole entry): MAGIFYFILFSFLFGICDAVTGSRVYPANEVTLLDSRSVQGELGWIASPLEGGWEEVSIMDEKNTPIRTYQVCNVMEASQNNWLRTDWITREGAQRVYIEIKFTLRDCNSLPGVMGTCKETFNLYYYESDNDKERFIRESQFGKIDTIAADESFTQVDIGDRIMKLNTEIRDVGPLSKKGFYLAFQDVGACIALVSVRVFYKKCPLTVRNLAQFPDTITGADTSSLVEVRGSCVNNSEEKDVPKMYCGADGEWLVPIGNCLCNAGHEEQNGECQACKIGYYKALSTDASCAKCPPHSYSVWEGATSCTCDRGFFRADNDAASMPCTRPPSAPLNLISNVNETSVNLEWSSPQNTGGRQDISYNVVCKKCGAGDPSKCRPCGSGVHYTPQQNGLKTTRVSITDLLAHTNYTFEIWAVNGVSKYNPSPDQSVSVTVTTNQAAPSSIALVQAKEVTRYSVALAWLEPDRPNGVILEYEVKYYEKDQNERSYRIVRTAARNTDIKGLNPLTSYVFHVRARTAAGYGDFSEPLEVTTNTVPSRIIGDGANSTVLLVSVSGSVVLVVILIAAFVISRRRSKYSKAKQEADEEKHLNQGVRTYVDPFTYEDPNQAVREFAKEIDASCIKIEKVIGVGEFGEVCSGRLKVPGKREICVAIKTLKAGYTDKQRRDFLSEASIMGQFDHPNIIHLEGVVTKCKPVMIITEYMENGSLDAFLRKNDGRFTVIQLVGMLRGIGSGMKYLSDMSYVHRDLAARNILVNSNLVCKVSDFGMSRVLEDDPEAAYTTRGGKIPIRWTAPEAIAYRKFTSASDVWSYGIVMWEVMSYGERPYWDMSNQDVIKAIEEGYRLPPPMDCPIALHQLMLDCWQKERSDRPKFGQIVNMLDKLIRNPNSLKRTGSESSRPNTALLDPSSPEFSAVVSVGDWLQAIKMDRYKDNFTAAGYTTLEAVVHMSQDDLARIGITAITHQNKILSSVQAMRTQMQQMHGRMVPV

[8] = biological target: T2, Endoribonuclease toxin MazF; assay: fluorescent RNA oligo signal without MazF, dose response, counter-screen for MazEF activator project, biochemical, fluorescence, single-stranded RNase substrate (AID 588502); format: functional
[9] = biological target: T3, Corticotropin-releasing factor receptor 2/Corticotropin-releasing factor-binding protein (Homo sapiens, UniProt P24387+Q13324); assay: activators of CRF receptor 2 with binding protein – uHTS hits, confirmation (AID 602473); format: functional; settings: read-out: EC50_Mean
T3 sequence (Q13324 whole entry): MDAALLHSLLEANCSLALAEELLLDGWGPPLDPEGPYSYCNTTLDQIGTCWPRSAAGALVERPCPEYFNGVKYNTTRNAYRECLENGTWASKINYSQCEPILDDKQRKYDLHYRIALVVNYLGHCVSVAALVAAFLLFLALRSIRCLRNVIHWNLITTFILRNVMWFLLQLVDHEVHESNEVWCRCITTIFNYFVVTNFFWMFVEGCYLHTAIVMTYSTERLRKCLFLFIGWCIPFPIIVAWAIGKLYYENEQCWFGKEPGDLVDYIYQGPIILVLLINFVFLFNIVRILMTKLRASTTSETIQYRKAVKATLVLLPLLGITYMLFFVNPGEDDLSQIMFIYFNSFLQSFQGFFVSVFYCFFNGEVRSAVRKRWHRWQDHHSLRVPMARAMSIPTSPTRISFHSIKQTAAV
T3 sequence (P24387 whole entry): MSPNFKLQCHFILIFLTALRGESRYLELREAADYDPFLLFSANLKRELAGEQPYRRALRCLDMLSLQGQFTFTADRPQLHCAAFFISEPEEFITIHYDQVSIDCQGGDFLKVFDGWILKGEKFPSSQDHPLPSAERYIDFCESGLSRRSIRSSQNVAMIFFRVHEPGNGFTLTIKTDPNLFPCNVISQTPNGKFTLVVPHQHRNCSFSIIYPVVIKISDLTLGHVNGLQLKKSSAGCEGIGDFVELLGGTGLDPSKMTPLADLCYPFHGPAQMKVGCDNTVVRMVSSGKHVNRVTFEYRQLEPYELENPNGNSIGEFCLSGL

[10] = inhibitors of intracellular T. cruzi replication, confirmation, NIH3T3 host cells, beta-gal luminescence (AID 2044); format: functional, cell-based;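 further: intracellular parasites grown in NIH/3T3 mouse fibroblasts as host cells; luminescent beta-galactosidase reporter signal from transgenic T. cruzi replicating inside host cells; inhibitors lower the luminescence signal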
Fatty acid synthase [11] = biological target: T4, Fatty acid synthase (Homo sapiens, UniProt P49327); assay: FAS thioesterase domain inhibitors, dose response, biochemical, endpoint fluorescence intensity, uHTS hits (AID 624327); format: functional;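 further: fluorescence from hydrolysis of an O-methyl fluorescein acyl ester substrate by the enzyme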
T4 sequence (P49327 whole entry, the tested form may be a part): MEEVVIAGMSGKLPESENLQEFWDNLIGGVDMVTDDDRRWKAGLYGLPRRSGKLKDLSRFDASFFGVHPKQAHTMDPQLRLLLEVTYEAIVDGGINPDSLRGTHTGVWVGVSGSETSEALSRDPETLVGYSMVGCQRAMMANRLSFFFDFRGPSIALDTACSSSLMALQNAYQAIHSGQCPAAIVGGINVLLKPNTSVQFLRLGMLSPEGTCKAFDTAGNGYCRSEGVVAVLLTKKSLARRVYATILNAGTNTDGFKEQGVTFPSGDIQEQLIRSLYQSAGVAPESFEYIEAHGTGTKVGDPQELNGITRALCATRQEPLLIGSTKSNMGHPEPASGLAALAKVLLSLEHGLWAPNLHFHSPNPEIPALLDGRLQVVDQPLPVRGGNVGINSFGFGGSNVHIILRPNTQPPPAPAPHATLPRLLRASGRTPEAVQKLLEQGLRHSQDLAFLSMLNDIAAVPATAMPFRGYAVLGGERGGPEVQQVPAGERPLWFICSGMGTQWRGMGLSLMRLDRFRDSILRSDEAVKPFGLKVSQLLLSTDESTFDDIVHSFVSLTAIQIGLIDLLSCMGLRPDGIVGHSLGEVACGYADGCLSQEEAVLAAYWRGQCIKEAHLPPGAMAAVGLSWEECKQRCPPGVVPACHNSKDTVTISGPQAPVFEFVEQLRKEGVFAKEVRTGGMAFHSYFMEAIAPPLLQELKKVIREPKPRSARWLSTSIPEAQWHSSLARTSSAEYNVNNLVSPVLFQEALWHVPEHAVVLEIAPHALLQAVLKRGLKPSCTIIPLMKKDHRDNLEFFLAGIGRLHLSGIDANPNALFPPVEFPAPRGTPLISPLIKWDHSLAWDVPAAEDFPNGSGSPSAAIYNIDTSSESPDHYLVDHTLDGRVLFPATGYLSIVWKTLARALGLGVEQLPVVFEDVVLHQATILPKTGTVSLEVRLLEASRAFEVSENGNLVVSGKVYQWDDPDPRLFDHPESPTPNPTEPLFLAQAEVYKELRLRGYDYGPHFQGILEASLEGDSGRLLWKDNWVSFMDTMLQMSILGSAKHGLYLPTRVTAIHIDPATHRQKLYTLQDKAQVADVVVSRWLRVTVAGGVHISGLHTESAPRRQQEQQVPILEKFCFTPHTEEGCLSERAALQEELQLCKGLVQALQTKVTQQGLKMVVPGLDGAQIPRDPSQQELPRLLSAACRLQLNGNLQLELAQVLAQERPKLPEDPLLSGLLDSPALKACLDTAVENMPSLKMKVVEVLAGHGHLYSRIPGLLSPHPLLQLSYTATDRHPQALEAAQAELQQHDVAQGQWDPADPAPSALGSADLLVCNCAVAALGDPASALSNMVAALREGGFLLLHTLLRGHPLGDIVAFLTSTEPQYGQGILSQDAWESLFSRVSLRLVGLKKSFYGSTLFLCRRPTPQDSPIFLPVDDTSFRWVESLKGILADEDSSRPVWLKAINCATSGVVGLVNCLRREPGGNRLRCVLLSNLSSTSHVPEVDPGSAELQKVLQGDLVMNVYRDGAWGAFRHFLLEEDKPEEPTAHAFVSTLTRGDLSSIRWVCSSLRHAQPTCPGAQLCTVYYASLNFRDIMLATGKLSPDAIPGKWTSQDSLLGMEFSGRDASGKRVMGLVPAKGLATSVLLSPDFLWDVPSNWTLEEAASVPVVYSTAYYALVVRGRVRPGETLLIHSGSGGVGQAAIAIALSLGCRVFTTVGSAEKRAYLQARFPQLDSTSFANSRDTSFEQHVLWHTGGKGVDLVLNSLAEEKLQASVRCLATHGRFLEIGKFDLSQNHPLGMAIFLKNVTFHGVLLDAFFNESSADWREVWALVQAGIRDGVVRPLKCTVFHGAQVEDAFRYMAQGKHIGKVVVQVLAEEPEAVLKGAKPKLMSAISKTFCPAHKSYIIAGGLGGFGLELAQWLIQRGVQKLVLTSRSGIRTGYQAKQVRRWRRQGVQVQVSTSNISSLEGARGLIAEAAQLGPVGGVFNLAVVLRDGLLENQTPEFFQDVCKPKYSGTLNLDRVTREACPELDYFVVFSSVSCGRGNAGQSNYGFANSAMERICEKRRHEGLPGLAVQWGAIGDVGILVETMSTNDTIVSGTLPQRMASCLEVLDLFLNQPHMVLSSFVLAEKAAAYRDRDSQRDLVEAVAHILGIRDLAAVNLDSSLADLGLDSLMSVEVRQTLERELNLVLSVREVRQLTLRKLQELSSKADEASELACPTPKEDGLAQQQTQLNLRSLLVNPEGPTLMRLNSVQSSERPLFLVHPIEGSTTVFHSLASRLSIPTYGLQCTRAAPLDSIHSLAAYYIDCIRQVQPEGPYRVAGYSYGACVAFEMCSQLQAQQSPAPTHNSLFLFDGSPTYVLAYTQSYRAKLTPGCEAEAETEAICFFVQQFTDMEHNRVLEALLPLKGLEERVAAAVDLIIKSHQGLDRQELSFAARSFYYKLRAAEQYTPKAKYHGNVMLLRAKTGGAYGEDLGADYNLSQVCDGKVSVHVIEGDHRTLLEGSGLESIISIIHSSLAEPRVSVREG

Fatty acid synthase [12] = biological target: T4, Fatty acid synthase; assay: FAS thioesterase domain inhibitors, dose response, biochemical, kinetic fluorescence intensity (AID 624326); format: functional;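 further: rate of fluorescence rise from hydrolysis of a fluorogenic O-methyl fluorescein ester substrate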
[13] = cytotoxicity toward NIH3T3 fibroblasts, dose response, counter-screen, cell-based, ATP luminescence, mouse fibroblasts (AID 2010); format: functional;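 further: cells exposed to compound for about 90 hours before reading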
[14] = biological target: Dual specificity tyrosine-phosphorylation-regulated kinase 1A (Rattus norvegicus, UniProt Q63470); format: biochemical, Homo sapiens
[15] = biological target: FAD-linked sulfhydryl oxidase ALR (Homo sapiens, UniProt P55789); assay: inhibitors of human ALR sulfhydryl oxidase, dose response, biochemical, H2O2 detection, luminescence, cherry-pick (AID 493248)
Sequence of FAD-linked sulfhydryl oxidase ALR (P55789 whole entry): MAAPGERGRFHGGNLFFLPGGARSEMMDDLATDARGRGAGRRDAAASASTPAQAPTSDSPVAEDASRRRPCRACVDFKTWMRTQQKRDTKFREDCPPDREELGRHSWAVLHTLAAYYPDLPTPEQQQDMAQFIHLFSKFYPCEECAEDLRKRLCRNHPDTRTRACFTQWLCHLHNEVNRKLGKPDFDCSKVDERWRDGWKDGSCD

[16] = biological target: T5, Aryl hydrocarbon receptor (Homo sapiens, UniProt P35869); assay: Luminescence-based cell-based high throughput dose response assay for activators of the Aryl Hydrocarbon Receptor (AHR). [Related pubchem assays: 2796 (Primary screen (AHR activators in singlicate)), 2845 (Confirmation screen (AHR activators in triplicate)), 434939 (Counterscreen (PXR activators in triplicate)), 2804 (Summary (AHR activators))]; format: ADME
T5 sequence (P35869 whole entry): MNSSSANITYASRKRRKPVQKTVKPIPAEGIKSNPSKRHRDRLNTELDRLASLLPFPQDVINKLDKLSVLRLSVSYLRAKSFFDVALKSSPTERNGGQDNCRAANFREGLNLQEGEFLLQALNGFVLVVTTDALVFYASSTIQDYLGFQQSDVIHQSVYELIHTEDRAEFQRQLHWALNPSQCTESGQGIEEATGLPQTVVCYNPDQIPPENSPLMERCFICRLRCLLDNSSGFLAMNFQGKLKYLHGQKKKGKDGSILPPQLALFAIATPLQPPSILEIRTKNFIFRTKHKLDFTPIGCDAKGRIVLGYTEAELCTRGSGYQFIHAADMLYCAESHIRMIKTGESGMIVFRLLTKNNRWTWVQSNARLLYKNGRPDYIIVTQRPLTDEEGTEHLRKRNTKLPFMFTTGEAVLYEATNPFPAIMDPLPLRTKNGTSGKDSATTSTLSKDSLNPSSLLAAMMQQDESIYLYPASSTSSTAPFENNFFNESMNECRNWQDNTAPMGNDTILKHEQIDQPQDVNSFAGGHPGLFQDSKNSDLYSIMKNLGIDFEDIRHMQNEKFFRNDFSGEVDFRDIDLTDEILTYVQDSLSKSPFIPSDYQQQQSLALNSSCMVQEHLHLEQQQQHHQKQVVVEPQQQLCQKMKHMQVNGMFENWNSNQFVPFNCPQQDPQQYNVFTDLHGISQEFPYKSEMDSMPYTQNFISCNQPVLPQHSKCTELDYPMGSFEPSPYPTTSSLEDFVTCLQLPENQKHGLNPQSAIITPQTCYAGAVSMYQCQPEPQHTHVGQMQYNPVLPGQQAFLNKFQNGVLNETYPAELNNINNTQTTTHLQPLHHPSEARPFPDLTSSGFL

Streptococcus = assay: Group A Streptococcus viability loss, dose response, counter-screen for streptokinase expression inhibitor project, luminescence, BacTiterGlo (AID 1915); format: functional, organism-based;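 further: potency for reduction of bacterial viability or growth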
[17] = system: Streptococcus sp. 'group A'; assay: growth inhibition of control SK(-) GAS strain, dose response, counter-screen for streptokinase expression inhibitor project, luminescence, kanamycin, BacTiterGlo, confirmation (AID 1900); format: functional, organism-based
[18] = cytotoxicity in HPDE-C7 cells, cell-based, fluorescence, HTS (AID 430); format: functional; settings: Homo sapiens
Streptokinase A = biological target: T6, Streptokinase A (Streptococcus pyogenes serotype M1, UniProt P10520); assay: S. pyogenes streptokinase expression inhibitors, potency, dose response, plasminogen activation absorbance, OD405 (AID 1914); format: functional, Streptococcus pyogenes M1 GAS;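 further: secreted streptokinase activity via plasminogen activation per viability signal from cell pellet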
T6 sequence (P10520 whole entry): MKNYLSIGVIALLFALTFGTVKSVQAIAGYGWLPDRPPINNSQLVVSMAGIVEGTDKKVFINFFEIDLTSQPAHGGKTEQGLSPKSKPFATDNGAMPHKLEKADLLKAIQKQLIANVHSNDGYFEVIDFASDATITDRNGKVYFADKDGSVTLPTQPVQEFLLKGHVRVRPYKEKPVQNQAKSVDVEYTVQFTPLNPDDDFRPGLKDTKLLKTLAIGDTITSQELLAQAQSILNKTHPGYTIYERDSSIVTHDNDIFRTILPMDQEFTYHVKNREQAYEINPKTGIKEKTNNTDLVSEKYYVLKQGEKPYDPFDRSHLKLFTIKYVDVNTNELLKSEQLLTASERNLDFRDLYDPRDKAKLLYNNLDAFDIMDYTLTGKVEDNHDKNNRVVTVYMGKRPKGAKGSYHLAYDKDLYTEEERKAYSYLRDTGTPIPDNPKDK

[19] = cytotoxicity in KRAS-transformed pancreatic duct cells, primary screen, cell-based, fluorescence, HTS (AID 431); format: functional; settings: Homo sapiens;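 further: cell line used: HPDE-C7K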
[20] = HepG2 cell cytotoxicity, dose response, cytotoxicity control, cherry-picked samples (AID 1159577); format: functional, cell-based
[21] = P. falciparum Dd2 growth inhibitors, dose response, SYBR Green, cherry-picked samples (AID 1159567); format: functional, cell-based
[22] = HepG2 cell cytotoxicity, dose response, cytotoxicity control, plate reader, dry powder samples (AID 1159569); format: functional, cell-based;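 further: inhibitor potency with signal falling toward the positive control level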
[23] = P. falciparum ATP4 D1247Y mutant growth inhibitors, dose response, NITD609-resistant line, SYBR Green, dry powder (AID 1159571); format: functional, cell-based;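 further: parasites synchronized at ring stage by sorbitol before testing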
[24] = P. falciparum 3D7-ScDHODH growth inhibitors, dose response, SYBR Green, dry powder samples (AID 1159570); format: functional, cell-based;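 further: parasite growth measured after 72 hours of compound exposure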
[25] = P. falciparum Dd2 growth inhibitors, dose response, SYBR Green, dry powder samples (AID 1159566); format: functional, cell-based;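 further: potency for growth inhibition with lower SYBR green DNA signal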
[26] = HeLa 4N DNA content increase, dose response, cell-based, IC50 (AID 1117351); format: functional
[27] = HeLa 2N DNA content increase, dose response, cell-based, IC50 (AID 1117349); format: functional

Sequence of NS3 (A3EZJ3 whole entry): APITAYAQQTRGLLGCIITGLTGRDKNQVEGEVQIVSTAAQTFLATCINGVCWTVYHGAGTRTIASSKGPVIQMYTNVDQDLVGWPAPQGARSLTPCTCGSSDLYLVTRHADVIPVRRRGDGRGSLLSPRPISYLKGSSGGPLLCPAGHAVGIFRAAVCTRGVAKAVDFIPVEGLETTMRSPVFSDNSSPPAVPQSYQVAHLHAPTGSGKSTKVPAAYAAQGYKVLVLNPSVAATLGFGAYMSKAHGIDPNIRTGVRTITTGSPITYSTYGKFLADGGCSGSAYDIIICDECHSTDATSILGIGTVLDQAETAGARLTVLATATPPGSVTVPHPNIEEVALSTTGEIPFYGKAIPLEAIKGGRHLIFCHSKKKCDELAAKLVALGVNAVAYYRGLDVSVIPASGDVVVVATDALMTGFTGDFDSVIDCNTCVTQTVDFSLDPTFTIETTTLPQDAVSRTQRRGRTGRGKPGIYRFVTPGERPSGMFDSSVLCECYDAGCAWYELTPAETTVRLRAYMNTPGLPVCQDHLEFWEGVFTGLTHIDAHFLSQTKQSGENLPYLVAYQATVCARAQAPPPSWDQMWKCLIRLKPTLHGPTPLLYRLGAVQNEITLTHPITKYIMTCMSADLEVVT

O=C(CCSc1ccc(Cl)cc1)c1cccs1
IC50 [1]: > 100 µM (active)

Cc1cc2cc(C(c3nnnn3Cc3ccco3)N3CCc4ccccc4C3)c(O)nc2cc1C (stereo not given)
IC50 (NS3): > 109 µM (not active)

Cc1ccc2[nH]c3c(N4CCCCCC4)ncnc3c2c1
IC50 [2]: 3.44 µM (active)

CCOC(=O)c1c(NC(=O)CSc2nc(C)cc(C)c2C#N)sc(C(C)=O)c1C
EC50 [3]: > 79.4 µM (not active)
EC50 [4]: > 79.4 µM (not active)
EC50 [5]: > 79.4 µM (not active)

CCCc1nn(-c2cc(Cl)ccc2OC)c2c1C(=O)CCC2
EC50 [6]: > 50 µM (not active)

CCCn1nc(-c2ccccc2)c2nc3ccccc3nc21
EC50 [7]: > 99 µM (inactive)
IC50 (Ephrin type-A receptor 4): 10.3 µM (active)
EC50 [8]: 61.7 µM (inactive)
EC50 [9]: 5.23 µM (active)

CN(CCO)c1cc(NCCCN2CCC(Cc3ccccc3)CC2)c2nonc2c1[N+](=O)[O-]
EC50 [10]: < 0.1 µM (active)
IC50 (Fatty acid synthase [11]): 12.2 µM (active)
IC50 (Fatty acid synthase [12]): 6.52 µM (active)
EC50 [13]: > 60 µM (not active)
EC50 (cells): 0.215 µM (active)

O/C(=C\c1nc2ccccc2nc1/C=C(\O)c1ccccc1)c1ccccc1
IC50 [1]: > 100 µM (active)

CN1CCc2nc3sc(C#N)c(N)c3c(-c3cccs3)c2C1
EC50 [10]: < 0.1 µM (active)
EC50 [13]: > 60 µM (not active)
EC50 (cells): 0.06 µM (active)
AC50 [14]: 3.27 µM (active)

Cc1cc(C)c(S(=O)(=O)Nc2ccc(O)cc2)cc1C
EC50 [6]: > 50 µM (not active)
AC50 [15]: 0.926 µM (active)

Cc1csc(NC(=O)CSc2ccc3nnc(-c4ccncc4)n3n2)n1
EC50 [16]: 12 µM (not active)

N#C/C(=C/c1ccc(N2CCCCCC2)o1)c1ccc(F)cc1
EC50 [10]: 3.49 µM (active)
EC50 (Streptococcus): > 150 µM (not active)
EC50 [17]: 19.2 µM (active)
EC50 [18]: 13.6 µM (active)
EC50 (Streptokinase A): 16 µM (active)
EC50 [13]: 9.44 µM (active)
EC50 [19]: 14.1 µM (active)
IC50 [2]: 11.5 µM (not active)

COc1ccc(/C=c2\sc3nc(-c4ccccc4)c(-c4ccccc4)n3c2=O)cc1OC
IC50 (Ephrin type-A receptor 4): 8.12 µM (active)

Cc1ccc(-c2ccc3c(c2)O[C@H](CN(C)Cc2ccncc2)[C@@H](C)CN([C@H](C)CO)S3(=O)=O)cc1
AC50 [20]: 22.1 µM (active)
AC50 [21]: 5.12 µM (active)

COc1cc(CN2C[C@@H]3N[C@H](C2)[C@@H]3c2ccc(-c3ccncc3)cc2)cc(OC)c1
AC50 [22]: 18.7 µM (active)
AC50 [20]: > 39 µM (inactive)
AC50 [23]: 1.9 µM (active)
AC50 [21]: 2.11 µM (active)
AC50 [24]: 2.53 µM (active)
AC50 [25]: 1.92 µM (active)

COCCOC(=O)C1=C(C)NC(C)=C(C(=O)OC/C=C/c2ccccc2)C1c1cccc([N+](=O)[O-])c1 (stereo not given) [CILNIDIPINE]
IC50 [26]: > 10 µM (inactive)
IC50 [27]: > 10 µM (inactive)

COC(=O)[C@H]1[C@H]2C[C@@H]3c4[nH]c5cc(OC)ccc5c4CCN3C[C@H]2C[C@@H](OC(=O)/C=C/c2ccc(O)c(OC)c2)[C@@H]1OC [RESCIMETOL]
IC50 [26]: > 10 µM (inactive)
IC50 [27]: > 10 µM (inactive)
